Target: γ-secretase (Homo sapiens, UniProt P49768)
Test: Screening for γ-secretase-modulating activity in SKNBE2 cells carrying APP 695 wild type
Assay type: cell-based
Settings: SKNBE2 cells carrying the APP 695 wild type
Description: Screening of the Compounds of the Invention for γ-Secretase-modulating Activity Screening was carried out using SKNBE2 cells carrying the APP 695—wild type, grown in DMEM/NUT-mix F12 (HAM) provided by Gibco (cat no. 31330-38) containing 5% Serum/Fe supplemented with 1% non-essential amino acids. Cells were grown to near confluency. The screening was performed using the assay as described in Citron et al (1997) Nature Medicine 3: 67.

Row | SMILES | inhibition at 1 µM [%]
1 | CC(C)CC(C(=O)O)c1cc(NC(=O)c2cc(F)cc(F)c2)cc(-c2ccc(C(F)(F)F)cc2)c1 (centres unmarked) [Compound 4, 2-[5-(3,5-Difluoro-benzoylamino)-4′-trifluoromethyl-biphenyl-3-yl]-4-methyl-pentanoic acid] | 34
2 | CC(C)CC(C(=O)O)c1cc(NC(=O)c2cc(C(F)(F)F)cc(C(F)(F)F)c2)cc(-c2ccc(C(F)(F)F)cc2)c1 (centres unmarked) [Compound 3, 2-[5-(3,5-Bis-trifluoromethyl-benzoylamino)-4′-trifluoromethyl-biphenyl-3-yl]-4-methyl-pentanoic acid] | 24
